Measurements from patent publication US6552014B2, “Methods of inhibiting platelet activation with selective serotonin reuptake inhibitors” (HeartDrug Research, L.L.C., priority 1999, dated 2003).

Legend:
Type in all cases: cell-based, human
[1] = tested on: GP Ib; test: Flow cytometry of platelet antigen expression, platelet rich plasma; conditions: for GP Ib (mean) log fluorescence intensity / GP Ib (peak) log fluorescence intensity: PRP
Excerpt: (§1) For ex vivo assessment of the SSRIs effect on a PAM, a level of a PAM can be assessed by flow cytometry by first obtaining a sample that comprises platelets and then contacting the sample with a platelet activation agonist, such as phorbol myristate acetate (PMA), ADP (adenosine diphosphate), thrombin, collagen, and/or TRAP (thrombin receptor activating peptide), under conditions suitable for activation of platelets in the sample. The sample is in contact with the agonist preferably for a period of time effective to maximally activate the platelets. […] NDMS at 31.1, 64.1 or 143 ng./ml). Then one contacts or stains the samples with a composition that comprises an anti-PAM antibody e.g., having a fluorescent label, preferably in an amount in excess of that required to bind the PAM expressed on the platelets, under conditions suitable for the formation of labeled complexes between the anti-PAM antibody and activated platelets. Then the formation of the complex in the sample is determined (detected or measured). […] The blood-ACD mixture was centrifuged at 1000 r.p.m. for 10 minutes at room temperature. […] The PRP was then centrifuged at 3000 r.p.m. for 10 minutes. […] All cells were then divided into ten plastic capped tubes. Nine portions of washed platelets were incubated with 5 μfluorescein isothiocyanate (FITC)-conjugated antibodies in the dark at +4 °C for 30 minutes, and one part remained unstained and served as a negative control. Surface antigen expression was measured with monoclonal murine anti-human antibodies: CD9 (p24); CD41a (IIb/IIIa, aIIIbb3); CD42b (Ib); CD61(IIIa) (DAKO Corporation, Carpinteria Calif.); CD49b (VLA-2, or a2b1); CD62p (P-selectin); CD31 (PECAM-1); […] The instrument was calibrated daily with fluorescence beads (CaliBRITE; Becton Dickinson) and measured FITC-conjugated fluorescence intensity. All parameters were obtained using four decade logarithmic amplification. The data was collected and stored in list mode, and then analyzed using CELLQuest® (version 1.2.2) software. Procedures are described in detail in (Gurbel, P. […] Serebruany, V. […] Gurbel, P. A. et al., Coron Artery Dis 9: 451-456 (1998) and Serebruany, V. L. et al., Arterioscl Thromb Vasc Biol 19: 153-158 (1999)). The data in table 1 was obtained using the methods described herein, and in particular, in Examples 1 and 2. The levels of various PAMs were assess from samples of human volunteers.

[2] = tested on: PECAM-1; test: as above; conditions: for PECAM-1 (mean) log fluorescence intensity / PECAM-1 (peak) log fluorescence intensity: PRP
Excerpt: as §1

[3] = tested on: platelets; test: PFA-100 closure time, collagen/ADP cartridge; conditions: whole blood from a healthy volunteer, increasing concentrations
Excerpt: A Platelet-Function Analyzer referred to as PFA-100® (Dade Behring, Deerfield Ill.) was used. The PFA-100® is a high shear-inducing analyzer that simulates primary hemostasis after injury to a small vessel under flow conditions. The PFA-100® system measures the time required for a patient's blood sample to form a“platelet plug” in the first phase of blood clot formation. That time interval, which normally ranges from one to three minutes, is called “closure time.” The device provides a constant negative pressure that aspirates whole blood which comes into contact with the collagen coated membrane and then passes through the aperture. The time required to obtain occlusion of the aperture is digitally recorded.
The PFA-100® system permits detection of platelet dysfunction during primary hemostasis, the first phase of hemostasis or coagulation. The system consists of a microprocessor-controlled instrument and disposable test cartridges that measure how well a patient's platelets adhere and aggregate to form a platelet plug.
An in vitro system for the detection of platelet dysfunction, PFA-100™, has been developed. It provides a quantitative measure of platelet function in anticoagulated whole blood. The system comprises a microprocessor-controlled instrument and a disposable test cartridge containing a biologically active membrane. […]

[4] = healthy volunteers, sertraline 18.1 ng/ml
[5] = healthy volunteers, sertraline 44.7 ng/ml
[6] = healthy volunteers, sertraline 85.3 ng/ml
[7] = post-angioplasty patient on aspirin, sertraline 18.1 ng/ml
[8] = post-angioplasty patient on aspirin, sertraline 44.7 ng/ml
[9] = post-angioplasty patient on aspirin, sertraline 85.3 ng/ml
[10] = plasma concentration 85.3 ng/ml, equivalent to 200 mg/daily
[11] = healthy volunteers, desmethylsertraline 31.1 ng/ml
[12] = healthy volunteers, desmethylsertraline 64.2 ng/ml
[13] = healthy volunteers, desmethylsertraline 143 ng/ml
[14] = post-angioplasty patient on aspirin, desmethylsertraline 31.1 ng/ml
[15] = post-angioplasty patient on aspirin, desmethylsertraline 64.2 ng/ml
[16] = post-angioplasty patient on aspirin, desmethylsertraline 143 ng/ml

## CN[C@H]1CC[C@@H](c2ccc(Cl)c(Cl)c2)c2ccccc21 [sertraline]
[1]; 18.1, 44.7 or 85.5 ng/mL of sertraline
  GPIb expression, flow cytometric graph (FIG. 8), in words: dose dependent decrease in the expression
[1]; [4]
  GP Ib (mean) log fluorescence intensity: 139
  GP Ib (peak) log fluorescence intensity: 125
[1]; [5]
  GP Ib (mean) log fluorescence intensity: 97
  GP Ib (peak) log fluorescence intensity: 74
[1]; [6]
  GP Ib (mean) log fluorescence intensity: 65
  GP Ib (peak) log fluorescence intensity: 67
[1]; [7]
  GP Ib (mean) log fluorescence intensity: 324
  GP Ib (peak) log fluorescence intensity: 305
[1]; [8]
  GP Ib (mean) log fluorescence intensity: 220
  GP Ib (peak) log fluorescence intensity: 257
[1]; [9]
  GP Ib (mean) log fluorescence intensity: 182
  GP Ib (peak) log fluorescence intensity: 186
[1]; [10]
  surface expression of GPIb, in words: diminished surface expression
[2]; 44.7, 85.3 ng/mL of sertraline
  PECAM-1 expression, flow cytometric graph (FIG. 10), in words: dose dependent decrease in the expression
[2]; [4]
  PECAM-1 (mean) log fluorescence intensity: 117
  PECAM-1 (peak) log fluorescence intensity: 88
[2]; [5]
  PECAM-1 (mean) log fluorescence intensity: 104
  PECAM-1 (peak) log fluorescence intensity: 71
[2]; [6]
  PECAM-1 (mean) log fluorescence intensity: 84
  PECAM-1 (peak) log fluorescence intensity: 66
[2]; [7]
  PECAM-1 (mean) log fluorescence intensity: 94
  PECAM-1 (peak) log fluorescence intensity: 76
[2]; [8]
  PECAM-1 (mean) log fluorescence intensity: 99
  PECAM-1 (peak) log fluorescence intensity: 98
[2]; [9]
  PECAM-1 (mean) log fluorescence intensity: 97
  PECAM-1 (peak) log fluorescence intensity: 93
[2]; [10]
  surface expression of PECAM-1, in words: diminished surface expression
[3]
  closure time (time for a platelet plug to form) (FIG. 11), in words: decrease in the time

## N[C@H]1CC[C@@H](c2ccc(Cl)c(Cl)c2)c2ccccc21 [Desmethyl sertraline, N-desmethylsertraline]
[1]; [11]
  GP Ib (mean) log fluorescence intensity: 146
  GP Ib (peak) log fluorescence intensity: 94
[1]; [12]
  GP Ib (mean) log fluorescence intensity: 299
  GP Ib (peak) log fluorescence intensity: 266
[1]; [13]
  GP Ib (mean) log fluorescence intensity: 309
  GP Ib (peak) log fluorescence intensity: 336
[1]; [14]
  GP Ib (mean) log fluorescence intensity: 167
  GP Ib (peak) log fluorescence intensity: 165
[1]; [15]
  GP Ib (mean) log fluorescence intensity: 198
  GP Ib (peak) log fluorescence intensity: 167
[1]; [16]
  GP Ib (mean) log fluorescence intensity: 222
  GP Ib (peak) log fluorescence intensity: 201
[2]; [11]
  PECAM-1 (mean) log fluorescence intensity: 74
  PECAM-1 (peak) log fluorescence intensity: 60
[2]; [12]
  PECAM-1 (mean) log fluorescence intensity: 101
[2]; [13]
  PECAM-1 (mean) log fluorescence intensity: 81
  PECAM-1 (peak) log fluorescence intensity: 74
[2]; [14]
  PECAM-1 (mean) log fluorescence intensity: 94
  PECAM-1 (peak) log fluorescence intensity: 83
[2]; [16]
  PECAM-1 (mean) log fluorescence intensity: 90
  PECAM-1 (peak) log fluorescence intensity: 84
[3]
  closure time (time for a platelet plug to form) (FIG. 11), in words: decrease in the time
